The text below walks through data of patent publication US10399940B2, “Substituted pyrrolidines and methods of use” (AbbVie S.à.r.l., priority 2016, dated 2019).

Read-outs that look alike come from different tables or passages of the source.

A word on the EC50: it is the concentration that produces a half-maximal response.

The target in this test is T1, F508delCFTR (Homo sapiens, UniProt P13569, DEL508-508).
T1 construct: expressed in transfected cells; host or cells: CFBE41o- (human lung derived epithelial cell line), doxycycline-inducible expression
T1 sequence (P13569 with tags, fused parts or gaps DEL508-508): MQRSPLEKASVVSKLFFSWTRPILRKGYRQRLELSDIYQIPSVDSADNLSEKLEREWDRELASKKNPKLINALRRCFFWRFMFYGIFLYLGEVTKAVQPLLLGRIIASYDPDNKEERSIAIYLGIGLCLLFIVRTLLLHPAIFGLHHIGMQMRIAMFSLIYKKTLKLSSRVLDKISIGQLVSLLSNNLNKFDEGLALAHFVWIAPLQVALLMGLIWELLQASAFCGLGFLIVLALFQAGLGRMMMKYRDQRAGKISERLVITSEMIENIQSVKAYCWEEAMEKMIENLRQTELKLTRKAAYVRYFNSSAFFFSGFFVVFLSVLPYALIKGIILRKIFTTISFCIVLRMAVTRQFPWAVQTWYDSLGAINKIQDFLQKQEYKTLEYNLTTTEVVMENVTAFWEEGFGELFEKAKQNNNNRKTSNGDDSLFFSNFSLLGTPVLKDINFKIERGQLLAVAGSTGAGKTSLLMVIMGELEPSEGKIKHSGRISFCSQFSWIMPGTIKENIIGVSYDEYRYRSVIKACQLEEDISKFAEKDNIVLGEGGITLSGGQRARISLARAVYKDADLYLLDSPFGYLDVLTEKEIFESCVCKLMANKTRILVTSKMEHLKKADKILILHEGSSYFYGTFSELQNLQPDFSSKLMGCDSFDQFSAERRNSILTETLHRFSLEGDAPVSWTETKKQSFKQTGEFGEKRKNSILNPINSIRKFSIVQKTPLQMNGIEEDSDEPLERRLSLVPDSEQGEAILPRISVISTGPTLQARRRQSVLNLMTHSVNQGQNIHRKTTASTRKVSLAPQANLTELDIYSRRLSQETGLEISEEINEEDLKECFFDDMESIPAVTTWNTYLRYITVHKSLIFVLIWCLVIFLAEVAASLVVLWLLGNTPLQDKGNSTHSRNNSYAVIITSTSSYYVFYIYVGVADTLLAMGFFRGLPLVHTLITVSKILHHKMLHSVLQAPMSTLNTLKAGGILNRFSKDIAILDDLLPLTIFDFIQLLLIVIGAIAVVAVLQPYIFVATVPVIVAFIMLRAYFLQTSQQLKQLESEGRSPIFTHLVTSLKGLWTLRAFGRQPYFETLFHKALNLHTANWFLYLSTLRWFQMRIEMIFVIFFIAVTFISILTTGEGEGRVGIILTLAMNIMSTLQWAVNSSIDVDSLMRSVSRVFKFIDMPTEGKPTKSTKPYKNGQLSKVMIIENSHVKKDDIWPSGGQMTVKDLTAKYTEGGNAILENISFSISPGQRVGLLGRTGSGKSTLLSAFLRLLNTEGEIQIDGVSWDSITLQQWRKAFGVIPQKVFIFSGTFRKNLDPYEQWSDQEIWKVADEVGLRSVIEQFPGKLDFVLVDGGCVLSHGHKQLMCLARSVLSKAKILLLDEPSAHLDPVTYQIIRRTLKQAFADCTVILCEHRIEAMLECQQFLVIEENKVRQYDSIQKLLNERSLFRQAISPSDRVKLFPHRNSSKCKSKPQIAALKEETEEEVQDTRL
The test can be described thus: Cell Surface Expression-Horse Radish Peroxidase (CSE-HRP) assay. The note with it: CFBE41o-F508delCFTR-HRP cells; for Maximum % activity (with co-corrector): with co-corrector (2 μM); for Maximum % activity (with co-corrector) / Maximum % activity (without co-corrector): normalized to on-plate positive control, highest concentration 20 μM. In kind it is cell-based. In short, it runs like this:
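Surface F508delCFTR-HRP was read by luminol luminescence after 18–24 h compound exposure at 33 °C, without or with 2 μM co-corrector. Doses were eight 3-fold steps from 20 μM, in doxycycline-induced (0.5 μg/mL, 72 h) CFBE41o- cells. % activity was scaled to the on-plate 2 μM positive control minus DMSO; EC50 came from a variable-slope sigmoid fit.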

[1] abbreviates: test compound without co-corrector, 18-24 hours at 33° C., read-out: EC50 (without co-corrector).
Setting [2] is: with co-corrector (2 μM of 3-[(2R,4R)-4-({[1-(2,2-difluoro-1,3-benzodioxol-5-yl)cyclopropyl]carbonyl}amino)-7-methoxy-3,4-dihydro-2H-chromen-2-yl]benzoic acid), read-out: EC50 (with co-corrector).

`COc1ccc(C(F)(F)F)cc1CO[C@H]1[C@H](C(C)(C)C)[C@@H](C(=O)O)N(C(=O)C2CCCCC2)[C@H]1c1ccccc1F` [Example 49, (2S,3R,4S,5S)-3-tert-butyl-1-(cyclohexanecarbonyl)-5-(2-fluorophenyl)-4-{[2-methoxy-5-(trifluoromethyl)phenyl]methoxy}pyrrolidine-2-carboxylic acid]: the “Maximum % activity (with co-corrector)” value is “+++ (≥350)”; the “Maximum % activity (without co-corrector)” value is “++ (≥100 and <200)”. Further, the EC50 under setting [1] lay within 1000 to 10000 nM. The EC50 under setting [2] lay in the range of 1000 to 10000 nM.

Turning to `COc1ccc(C(C)(C)C)cc1CO[C@H]1[C@H](C(C)(C)C)[C@@H](C(=O)O)N(C(=O)C2CCCCC2)[C@H]1c1ccccc1F` [Example 50, (2S,3R,4S,5S)-3-tert-butyl-4-[(5-tert-butyl-2-methoxyphenyl)methoxy]-1-(cyclohexanecarbonyl)-5-(2-fluorophenyl)pyrrolidine-2-carboxylic acid], the “Maximum % activity (with co-corrector)” value is recorded as “+++ (≥350)” and the “Maximum % activity (without co-corrector)” value is reported as “+++ (≥200)”. The EC50 under setting [1] is less than 1000 nM. Besides, the EC50 under setting [2] was less than 1000 nM.

In the case of `COc1ncc(Br)cc1CO[C@H]1[C@H](C(C)(C)C)[C@@H](C(=O)O)N(C(=O)C2CCCCC2)[C@H]1c1ccccc1F` [Example 51, (2S,3R,4S,5S)-4-[(5-bromo-2-methoxypyridin-3-yl)methoxy]-3-tert-butyl-1-(cyclohexanecarbonyl)-5-(2-fluorophenyl)pyrrolidine-2-carboxylic acid], the “Maximum % activity (with co-corrector)” value is given as “+++ (≥350)”; the “Maximum % activity (without co-corrector)” value is “++ (≥100 and <200)”. Also, under setting [1], the EC50 lay in the range of 1000 to 10000 nM. Also, the EC50 under setting [2] lay within 1000 to 10000 nM.

On to `COc1ncc(-c2ccccc2)cc1CO[C@H]1[C@H](C(C)(C)C)[C@@H](C(=O)O)N(C(=O)C2CCCCC2)[C@H]1c1ccccc1F` [Example 52, (2S,3R,4S,5S)-3-tert-butyl-1-(cyclohexanecarbonyl)-5-(2-fluorophenyl)-4-[(2-methoxy-5-phenylpyridin-3-yl)methoxy]pyrrolidine-2-carboxylic acid], for which the “Maximum % activity (with co-corrector)” value is recorded as “+++ (≥350)” and the “Maximum % activity (without co-corrector)” value is reported as “+ (<100)”. Moreover, under setting [1], the EC50 was in the range of 1000 to 10000 nM. Under setting [2], the EC50 was in the range of 1000 to 10000 nM.

As for `COc1ncc(C2CCC2)cc1CO[C@H]1[C@H](C(C)(C)C)[C@@H](C(=O)O)N(C(=O)C2CCCCC2)[C@H]1c1ccccc1` [Example 53, (2S,3R,4S,5S)-3-tert-butyl-4-[(5-cyclobutyl-2-methoxypyridin-3-yl)methoxy]-1-(cyclohexanecarbonyl)-5-phenylpyrrolidine-2-carboxylic acid], the “Maximum % activity (with co-corrector)” value is on record as “+++ (≥350)”; the “Maximum % activity (without co-corrector)” value is “++ (≥100 and <200)”. Besides, the EC50 under setting [1] is less than 1000 nM. Under setting [2], the EC50 was less than 1000 nM.

Regarding `COc1ncc(C2CCCC2)cc1CO[C@H]1[C@H](C(C)(C)C)[C@@H](C(=O)O)N(C(=O)C2CCCCC2)[C@H]1c1ccccc1` [Example 54, (2S,3R,4S,5S)-3-tert-butyl-1-(cyclohexanecarbonyl)-4-[(5-cyclopentyl-2-methoxypyridin-3-yl)methoxy]-5-phenylpyrrolidine-2-carboxylic acid], the “Maximum % activity (with co-corrector)” value was “+++ (≥350)”; the “Maximum % activity (without co-corrector)” value was “++ (≥100 and <200)”. The EC50 under setting [1] is less than 1000 nM. Further, the EC50 under setting [2] was less than 1000 nM.

Regarding `COc1ncc(C2CC3CCC2C3)cc1CO[C@H]1[C@H](C(C)(C)C)[C@@H](C(=O)O)N(C(=O)C2CCCCC2)[C@H]1c1ccccc1` (stereo partly drawn) [Example 55, (2S,3R,4S,5S)-4-{[5-(bicyclo[2.2.1]heptan-2-yl)-2-methoxypyridin-3-yl]methoxy}-3-tert-butyl-1-(cyclohexanecarbonyl)-5-phenylpyrrolidine-2-carboxylic acid], the “Maximum % activity (with co-corrector)” value is “+++ (≥350)”; the “Maximum % activity (without co-corrector)” value was “++ (≥100 and <200)”. The EC50 under setting [1] is 1000 to 10000 nM. Also, the EC50 under setting [2] was in the range of 1000 to 10000 nM.

On to `COc1ncc(C2CCC2)cc1CO[C@H]1[C@H](C(C)(C)C)[C@@H](C(=O)O)N(C(=O)C2CCCCC2)[C@H]1c1ccccc1F` [Example 56, (2S,3R,4S,5S)-3-tert-butyl-4-[(5-cyclobutyl-2-methoxypyridin-3-yl)methoxy]-1-(cyclohexanecarbonyl)-5-(2-fluorophenyl)pyrrolidine-2-carboxylic acid], for which the “Maximum % activity (with co-corrector)” value was “+++ (≥350)”; the “Maximum % activity (without co-corrector)” value was “++ (≥100 and <200)”. Further, the EC50 under setting [1] is less than 1000 nM. Further, under setting [2], the EC50 was less than 1000 nM.

In the case of `COc1ncc(C2CCCC2)cc1CO[C@H]1[C@H](C(C)(C)C)[C@@H](C(=O)O)N(C(=O)C2CCCCC2)[C@H]1c1ccccc1F` [Example 57, (2S,3R,4S,5S)-3-tert-butyl-1-(cyclohexanecarbonyl)-4-[(5-cyclopentyl-2-methoxypyridin-3-yl)methoxy]-5-(2-fluorophenyl)pyrrolidine-2-carboxylic acid], the “Maximum % activity (with co-corrector)” value was “+++ (≥350)”; the “Maximum % activity (without co-corrector)” value was “++ (≥100 and <200)”. In addition, the EC50 under setting [1] lay within 1000 to 10000 nM. Under setting [2], the EC50 was in the range of 1000 to 10000 nM.

Turning to `COc1ncc(C2CC3CCC2C3)cc1CO[C@H]1[C@H](C(C)(C)C)[C@@H](C(=O)O)N(C(=O)C2CCCCC2)[C@H]1c1ccccc1F` (stereo partly drawn) [Example 58, (2S,3R,4S,5S)-4-{[5-(bicyclo[2.2.1]heptan-2-yl)-2-methoxypyridin-3-yl]methoxy}-3-tert-butyl-1-(cyclohexanecarbonyl)-5-(2-fluorophenyl)pyrrolidine-2-carboxylic acid], the “Maximum % activity (with co-corrector)” value is on record as “+++ (≥350)”; the “Maximum % activity (without co-corrector)” value was “++ (≥100 and <200)”. For the same molecule, the EC50 under setting [1] was less than 1000 nM. Further, the EC50 under setting [2] was less than 1000 nM.

For the molecule `COc1ncc(N2CCCC2)cc1CO[C@H]1[C@H](C(C)(C)C)[C@@H](C(=O)O)N(C(=O)C2CCCCC2)[C@H]1c1ccccc1F` [Example 59, (2S,3R,4S,5S)-3-tert-butyl-1-(cyclohexanecarbonyl)-5-(2-fluorophenyl)-4-{[2-methoxy-5-(pyrrolidin-1-yl)pyridin-3-yl]methoxy}pyrrolidine-2-carboxylic acid], the “Maximum % activity (with co-corrector)” value was “++ (≥150 and <350)”; the “Maximum % activity (without co-corrector)” value is reported as “+ (<100)”. Further, the EC50 under setting [1] lay in the range of 1000 to 10000 nM. Moreover, the EC50 under setting [2] fell in the range of 1000 to 10000 nM.

Regarding `COc1ncc(C(C)(C)C)cc1CO[C@H]1[C@H](C(C)(C)C)[C@@H](C(=O)O)N(C(=O)C2CCCCC2)[C@H]1c1ccccc1` [Example 60, (2S,3R,4S,5S)-3-tert-butyl-4-[(5-tert-butyl-2-methoxypyridin-3-yl)methoxy]-1-(cyclohexanecarbonyl)-5-phenylpyrrolidine-2-carboxylic acid], the “Maximum % activity (with co-corrector)” value is listed as “+++ (≥350)”; the “Maximum % activity (without co-corrector)” value is “++ (≥100 and <200)”. Further, the EC50 under setting [1] was less than 1000 nM. Further, under setting [2], the EC50 is less than 1000 nM.

On to `COc1ncc(C(C)(C)C)cc1CO[C@H]1[C@H](C(C)(C)C)[C@@H](C(=O)O)N(C(=O)[C@@H]2CCC[C@@H](OC)C2)[C@H]1c1ccccc1` [Example 61, (2S,3R,4S,5S)-3-tert-butyl-4-[(5-tert-butyl-2-methoxypyridin-3-yl)methoxy]-1-[(1R,3R)-3-methoxycyclohexane-1-carbonyl]-5-phenylpyrrolidine-2-carboxylic acid], for which the “Maximum % activity (with co-corrector)” value is given as “+++ (≥350)” and the “Maximum % activity (without co-corrector)” value is given as “+++ (≥200)”. The EC50 under setting [1] was less than 1000 nM. For the same molecule, the EC50 under setting [2] was less than 1000 nM.

Take `COc1ncc(C(C)(C)C)cc1CO[C@H]1[C@H](C(C)(C)C)[C@@H](C(=O)O)N(C(=O)C2CCCCC2)[C@H]1c1ccccc1F` [Example 62, (2S,3R,4S,5S)-3-tert-butyl-4-[(5-tert-butyl-2-methoxypyridin-3-yl)methoxy]-1-(cyclohexanecarbonyl)-5-(2-fluorophenyl)pyrrolidine-2-carboxylic acid]: the “Maximum % activity (with co-corrector)” value is given as “+++ (≥350)”; the “Maximum % activity (without co-corrector)” value was “++ (≥100 and <200)”. Moreover, the EC50 under setting [1] is less than 1000 nM. In addition, the EC50 under setting [2] is less than 1000 nM.

On to `COc1ncc(C(C)(C)C)cc1CO[C@H]1[C@H](C(C)(C)C)[C@@H](C(=O)O)N(C(=O)OC(C)C)[C@H]1c1ccccc1` [Example 63, (2S,3R,4S,5S)-3-tert-butyl-4-[(5-tert-butyl-2-methoxypyridin-3-yl)methoxy]-5-phenyl-1-{[(propan-2-yl)oxy]carbonyl}pyrrolidine-2-carboxylic acid], for which the “Maximum % activity (with co-corrector)” value was “+++ (≥350)”; the “Maximum % activity (without co-corrector)” value was “++ (≥100 and <200)”. The EC50 under setting [1] was 1000 to 10000 nM. Besides, under setting [2], the EC50 lay in the range of 1000 to 10000 nM.

Take `COc1ncc(C(F)(F)F)cc1CO[C@H]1[C@H](C(C)(C)C)[C@@H](C(=O)O)N(C(=O)OC(C)C)[C@H]1c1ccccc1` [Example 64, (2S,3R,4S,5S)-3-tert-butyl-4-{[2-methoxy-5-(trifluoromethyl)pyridin-3-yl]methoxy}-5-phenyl-1-{[(propan-2-yl)oxy]carbonyl}pyrrolidine-2-carboxylic acid]: the “Maximum % activity (with co-corrector)” value is on record as “+++ (≥350)”; the “Maximum % activity (without co-corrector)” value was “++ (≥100 and <200)”. The EC50 under setting [1] was 1000 to 10000 nM. Also, the EC50 under setting [2] lay in the range of 1000 to 10000 nM.
